According to patent US10245264B2, “Substituted imidazo[1,2-a]pyrazines as soluble guanylate cyclase activators” (Merck Sharp & Dohme Corp., priority 2015, dated 2019):
Blank lines part the entries; values can stand above or below the compound they belong to.

Biological target: T1, sGC α1/β1 heterodimer stably expressed in CHO-K1 cells (CHO-K1/sGC) (Homo sapiens, UniProt Q02108+Q02153)
T1 construct: expressed in transfected cells
T1 sequence (Q02108 1-690): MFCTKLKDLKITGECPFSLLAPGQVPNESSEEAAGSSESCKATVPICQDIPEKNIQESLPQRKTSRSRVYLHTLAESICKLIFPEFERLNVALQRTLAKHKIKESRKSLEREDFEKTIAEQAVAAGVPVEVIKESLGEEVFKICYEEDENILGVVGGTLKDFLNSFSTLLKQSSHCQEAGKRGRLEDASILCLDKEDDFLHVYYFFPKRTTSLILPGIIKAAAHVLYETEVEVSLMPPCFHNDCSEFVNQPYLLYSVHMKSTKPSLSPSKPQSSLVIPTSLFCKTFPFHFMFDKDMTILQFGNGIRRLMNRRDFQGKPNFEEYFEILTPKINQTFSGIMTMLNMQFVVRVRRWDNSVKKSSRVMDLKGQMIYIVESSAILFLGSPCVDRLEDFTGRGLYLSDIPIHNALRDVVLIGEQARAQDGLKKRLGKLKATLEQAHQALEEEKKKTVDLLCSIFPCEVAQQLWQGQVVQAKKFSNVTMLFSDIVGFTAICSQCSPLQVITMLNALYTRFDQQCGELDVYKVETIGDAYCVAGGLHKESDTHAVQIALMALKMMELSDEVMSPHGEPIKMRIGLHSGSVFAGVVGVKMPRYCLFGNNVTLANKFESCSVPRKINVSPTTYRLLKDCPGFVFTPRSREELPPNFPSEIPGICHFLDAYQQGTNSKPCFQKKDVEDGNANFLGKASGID
T1 sequence (Q02153 1-619): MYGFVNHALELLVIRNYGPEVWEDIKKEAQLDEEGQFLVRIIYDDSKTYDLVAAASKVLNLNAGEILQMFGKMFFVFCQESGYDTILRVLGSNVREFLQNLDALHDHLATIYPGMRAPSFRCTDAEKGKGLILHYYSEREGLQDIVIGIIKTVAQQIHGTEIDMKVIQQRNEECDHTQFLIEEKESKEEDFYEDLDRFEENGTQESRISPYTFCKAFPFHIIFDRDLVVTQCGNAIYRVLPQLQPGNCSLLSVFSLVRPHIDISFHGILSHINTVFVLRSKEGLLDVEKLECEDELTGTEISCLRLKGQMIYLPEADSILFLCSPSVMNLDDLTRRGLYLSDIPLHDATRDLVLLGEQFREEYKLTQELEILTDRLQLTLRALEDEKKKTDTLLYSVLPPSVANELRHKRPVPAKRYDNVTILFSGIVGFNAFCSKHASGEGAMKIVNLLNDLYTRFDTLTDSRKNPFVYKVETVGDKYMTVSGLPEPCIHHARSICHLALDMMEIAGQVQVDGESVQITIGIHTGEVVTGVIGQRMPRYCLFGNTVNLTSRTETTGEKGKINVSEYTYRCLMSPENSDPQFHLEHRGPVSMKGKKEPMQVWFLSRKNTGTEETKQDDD
Assay: Cell-based sGC functional assay (CASA assay), cGMP generation by HTRF
Conditions: for Emax: CHO-K1, maximum cGMP production of Compound A set to 100% activation, read-out: % Act. (percent activation relative to Compound A); for EC50: CHO-K1/sGC cells, 1 hr at 37° C., 4P fit, presence or absence of DETA-NO not given, read-out: IP (nM) (inflection point); for % Act. (percent activation relative to Compound A): maximum cGMP production of Compound A set to 100% activation
Excerpt: Biological Assay 1: Cell-Based sGC Functional Assay (CASA Assay) Rationale
sGC is a heme-containing enzyme that converts GTP to secondary messenger cGMP. Increases in cGMP levels affect several physiological processes including vasorelaxation through multiple downstream pathways. […] Heme-dependent activators (HDAs) preferentially activate sGC containing a ferrous heme group. To determine the effect of sGC activators on enzyme activity, the CASA assay was developed to monitor the generation of cGMP in a cell line that stably expresses the heterodimeric sGC protein.
A CHO-K1 cell line stably expressing the sGC α1/β1 heterodimer was generated using a standard transfection protocol. CHO-K1 cells were transfected with plasmids pIREShyghsGCα1 and pIRESneo-hsGCβ1 simultaneously using FUGENE reagent. Clones that stably express both subunits were selected with hygromycin and neomycin for ˜2 weeks. Clone #7 was chosen for the assay and was designated CHO-K1/sGC. CHO-K1/sGC cells were maintained in F-K12 medium containing 10% heat-inactivated Fetal Bovine Serum (FBS), 100 μg/mL penicillin/streptomycin, 0.5 mg/mL hygromycin and 0.25 mg/mL G418. The cells were then cryopreserved in LN2. On the day of the assay, cells were thawed and resuspended in EBSS Assay Buffer (Sigma, E3024) supplemented with 5 mM MgCl2, 10 mM HEPES (4-(2-hydroxyethyl)piperazine-1-ethanesulfonic acid) and 0.05% BSA (bovine serum albumin) (EAB) and cell density was then adjusted to 4×10^5/mL with EAB. IBMX (3-isobutyl-1-methylxanthin, 0.5 mM) was added to inhibit degradation of cGMP. Compounds were diluted from DMSO stock solutions and added to the assay at a final DMSO concentration of 2.5%. Cells were incubated with compounds in the presence and absence of 1 μM of Diethylenetriamine/nitric oxide adduct (DETA-NO; Sigma, 17018) for 1 hr at 37° C. At the end of the incubation period, the reaction was terminated and the cells were lysed with the detection reagents from Cisbio Kits. The level of intracellular cGMP was determined using an HTRF-based assay kit (CisBio, 62GM2PEC), which detects the displacement of a fluorescence labeled cGMP from its specific antibody. The cGMP produced by test compounds was directly compared to the maximum cGMP production (this value was set to equal 100% activation.) of the published sGC-HDA Compound A:
[drawing 101] (Example 1 in WO 2010/065275, published Jun. 10, 2010). The test compounds' activities were then expressed as a percentage of Compound A, the standard in every experiment. This percent activation was calculated either in the presence or absence of DETA-NO which was then plotted. IP and maximum fold induction was derived using ADA analysis software for 4P fit.
The compounds in the Examples of the instant invention had inflection points (IP) less than or equal to 10 μM and many had IPs less than or equal to about 1 μM.

Compound: CC1(c2ccc(F)cc2)C(=O)Nc2nc(-c3cn4ccnc4c(Oc4c(F)ccc(F)c4F)n3)nc(N)c21 (centres unmarked) [Example 6A, 4-amino-5-(4-fluorophenyl)-5-methyl-2-[8-(2,3,6-trifluorophenoxy)imidazo[1,2-a]pyrazin-6-yl]-5,7-dihydro-6H-pyrrolo[2,3-d] pyrimidin-6-one]
- Emax: 89%
- EC50: 499 nM

Compound: CC1(c2ccc(F)cc2)C(=O)Nc2nc(-c3cn4ccnc4c(OCCC4CC4(F)F)n3)nc(N)c21 (centres unmarked) [Example 41A, 4-amino-2-{8-[2-(2,2-difluoro-cyclopropyl)ethoxy]imidazo[1,2-a]pyrazin-6-yl}-5-(4-fluorophenyl)-5-methyl-5,7-dihydro-6H-pyrrolo[2,3-d] pyrimidin-6-one]
- Emax: 94%
- EC50: 644 nM

Compound: CC1(c2ccc(Cl)cc2)C(=O)Nc2nc(-c3cn4ccnc4c(OCC4CCCOC4)n3)nc(N)c21 (single isomer, unassigned; slow eluting) [Example 67B, 4-amino-5-(4-chlorophenyl)-5-methyl-2-[8-(tetrahydro-2H-pyran-3-ylmethoxy)imidazo[1,2-a]pyrazin-6-yl]-5,7-dihydro-6H-pyrrolo [2,3-d] pyrimidin-6-one (slow eluting)]
- EC50: 501 nM
- % Act. (percent activation relative to Compound A): 94%

Compound: CC1(c2ccccc2)C(=O)Nc2nc(-c3cn4ccnc4c(OCC(F)(F)C(F)(F)F)n3)nc(N)c21 (centres unmarked) [Example 3B, 4-amino-5-methyl-2-[8-(2,2,3,3,3-pentafluoropropoxy)imidazo[1,2-a]pyrazin-6-yl]-5-phenyl-5,7-dihydro-6H-pyrrolo [2,3-d]pyrimidin-6-one]
- Emax: 97%
- EC50: 416 nM

Compound: CC1(c2ccc(F)cc2)C(=O)Nc2nc(-c3cn4ccnc4c(Oc4ccc(F)cc4F)n3)nc(N)c21 (centres unmarked) [Example 19A, 4-amino-2-[8-(2,4-difluorophenoxy)imidazo[1,2-a]pyrazin-6-yl]-5-(4-fluorophenyl)-5-methyl-5,7-dihydro-6H-pyrrolo[2,3-d] pyrimidin-6-one]
- Emax: 109%
- EC50: 74 nM

Compound: CC1(C)C(=O)Nc2nc(-c3cn4ccnc4c(Oc4cc(F)cc(F)c4)n3)nc(N)c21 [Example 24, 4-amino-2-[8-(3,5-difluorophenoxy)imidazo[1,2-a]pyrazin-6-yl]-5,5-dimethyl-5,7-dihydro-6H-pyrrolo[2,3-d] pyrimidin-6-one]
- Emax: 89%
- EC50: 238 nM

Compound: CC1(c2ccccc2)C(=O)Nc2nc(-c3cn4ccnc4c(Oc4ccccc4F)n3)nc(N)c21 (centres unmarked) [Example 5B, 4-amino-2-[8-(2-fluorophenoxy)imidazo[1,2-a]pyrazin-6-yl]-5-methyl-5-phenyl-5,7-dihydro-6H-pyrrolo[2,3-d] pyrimidin-6-one]
- Emax: 107%
- EC50: 80 nM

Now from value to compound:

- Emax: 104%
- EC50: 23 nM
Compound: CC1(c2ccc(F)cc2)C(=O)Nc2nc(-c3cn4ccnc4c(Oc4cccc(F)c4F)n3)nc(N)c21 (centres unmarked) [Example 15A, 4-amino-2-[8-(2,3-difluorophenoxy)imidazo[1,2-a]pyrazin-6-yl]-5-(4-fluorophenyl)-5-methyl-5,7-dihydro-6H-pyrrolo[2,3-d] pyrimidin-6-one]

- EC50: 1710 nM
- % Act. (percent activation relative to Compound A): 115%
Compound: CC1(c2ccc(Cl)cc2)C(=O)Nc2nc(-c3cn4ccnc4c(OCC4CCCOC4)n3)nc(N)c21 (single isomer, unassigned; fast eluting) [Example 66A, 4-amino-5-(4-chlorophenyl)-5-methyl-2-[8-(tetrahydro-2H-pyran-3-ylmethoxy)imidazo[1,2-a]pyrazin-6-yl]-5,7-dihydro-6H-pyrrolo [2,3-d] pyrimidin-6-one (fast eluting)]

- EC50: 231 nM
- % Act. (percent activation relative to Compound A): 87%
Compound: CC(Nc1nc(-c2nc(N)c3c(n2)NC(=O)C3(C)c2ccc(Cl)cc2)cn2ccnc12)c1ccccc1 (centres unmarked) [Example 74, 4-amino-5-(4-chlorophenyl)-5-methyl-2-{8-[(1-phenylethyl)amino]imidazo [1,2-a]pyrazin-6-yl}-5,7-dihydro-6H-pyrrolo[2,3-d] pyrimidin-6-one]

- Emax: 124%
- EC50: 28 nM
Compound: CC1(c2ccc(F)cc2)C(=O)Nc2nc(-c3cn4ccnc4c(Oc4ccccc4)n3)nc(N)c21 (centres unmarked) [Example 9A, 4-amino-5-(4-fluorophenyl)-5-methyl-2-(8-phenoxyimidazo [1,2-a]pyrazin-6-yl)-5,7-dihydro-6H-pyrrolo[2,3-d] pyrimidin-6-one]

- Emax: 103%
- EC50: 833 nM
Compound: C[C@H](Oc1nc(-c2nc(N)c3c(n2)NC(=O)C3(C)c2ccc(Cl)cc2)cn2ccnc12)c1ccccc1 (single isomer, unassigned; fast eluting) [Example 69A]

- Emax: 105%
- EC50: 718 nM
Compound: CC1(C)C(=O)Nc2nc(-c3cn4ccnc4c(Oc4cc(F)ccc4F)n3)nc(N)c21 [Example 26, 4-amino-2-[8-(2,5-difluorophenoxy)imidazo[1,2-a]pyrazin-6-yl]-5,5-dimethyl-5,7-dihydro-6H-pyrrolo[2,3-d] pyrimidin-6-one]

- Emax: 67%
- EC50: 73 nM
Compound: CC1(c2ccc(F)cc2)C(=O)Nc2nc(-c3cn4ccnc4c(SCCC(F)(F)F)n3)nc(N)c21 (centres unmarked) [Example 64A, 4-amino-5-(4-fluorophenyl)-5-methyl-2-{8-[(3,3,3-trifluoro-propyl)sulfanyl]imidazo[1,2-a]pyrazin-6-yl}-5,7-dihydro-6H-pyrrolo[2,3-d] pyrimidin-6-one]

- Emax: 72%
- EC50: 7 nM
Compound: CC1(c2ccc(Cl)cc2)C(=O)Nc2nc(-c3cn4ccnc4c(NCc4ccccc4)n3)nc(N)c21 (centres unmarked) [Example 60A, 4-amino-2-[8-(benzylamino)imidazo[1,2-a]pyrazin-6-yl]-5-(4-chloro-phenyl)-5-methyl-5,7-dihydro-6H-pyrrolo[2,3-d] pyrimidin-6-one]

- Emax: 96%
- EC50: 534 nM
Compound: Nc1nc(-c2cn3ccnc3c(OCC(F)(F)C(F)(F)F)n2)nc2c1C(c1ccc(F)cc1)(C1CC1)C(=O)N2 (centres unmarked) [Example 14B, 4-amino-5-cyclopropyl-5-(4-fluorophenyl)-2-[8-(2,2,3,3,3-pentafluoropropoxy)imidazo[1,2-a]pyrazin-6-yl]-5,7-dihydro-6H-pyrrolo [2,3-d]pyrimidin-6-one]
